Results as given in ChEMBL document CHEMBL1201862, “PubChem BioAssay data set” (2004).
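1) Cells in 96-well plates. 2) Compound, 48 h, 5 concentrations. 3) Linear interpolation between surrounding doses. 4) Unreached endpoint = highest concentration. Here, GI50 denotes the concentration required for 50% inhibition of growth.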 Activity calls are given as the source filed them. No stated cut-off is given here; in the data, active = GI50 up to about 1.1 µM and inactive = higher.

Legend:
Experiment in all cases: DTP human tumour cell line panel, 48 h
A498 = system: A498
HL-60 = system: HL-60
Hs-578T = system: Hs-578T
MDA-MB-231 = system: MDA-MB-231
BT-549 = system: BT-549
HOP-62 = system: HOP-62
SN12C = system: SN12C
SNB-75 = system: SNB-75
MCF7 = system: MCF7
CCRF-CEM = system: CCRF-CEM
MDA-MB-435 = system: MDA-MB-435
SNB-19 = system: SNB-19
HCT-15 = system: HCT-15
SF-295 = system: SF-295
COLO 205 = system: COLO 205
SF-268 = system: SF-268
RPMI-8226 = system: RPMI-8226
RXF 393 = system: RXF 393
SF-539 = system: SF-539
SW-620 = system: SW-620

Row | Compound | GI50 (A498) | GI50 (HL-60) | GI50 (Hs-578T) | GI50 (MDA-MB-231) | GI50 (BT-549) | GI50 (HOP-62) | GI50 (SN12C) | GI50 (SNB-75) | GI50 (MCF7) | GI50 (CCRF-CEM) | GI50 (MDA-MB-435) | GI50 (SNB-19) | GI50 (HCT-15) | GI50 (SF-295) | GI50 (COLO 205) | GI50 (SF-268) | GI50 (RPMI-8226) | GI50 (RXF 393) | GI50 (SF-539) | GI50 (SW-620)
1 | CS(=O)(=O)Nc1ccc2ccccc2c1-c1c(NS(C)(=O)=O)ccc2ccccc12 | > 25 µM (inactive) | > 25 µM (inactive) | > 25 µM (inactive) | > 25 µM (inactive) | > 25 µM (inactive) | > 25 µM (inactive) | > 25 µM (inactive) | > 19.1 µM (inactive) | 1.17 µM (inactive) | > 25 µM (inactive) | > 25 µM (inactive) | > 25 µM (inactive) | > 25 µM | > 25 µM (inactive) | > 25 µM (inactive) | > 25 µM (inactive) | > 25 µM (inactive) | > 21.5 µM (inactive) | > 25 µM (inactive) | > 25 µM (inactive)
2 | COc1cc(C2c3cc4c(cc3OC(NC3CCCCC3)C2C)OCO4)cc(OC)c1OC (stereo not given) | 0.681 µM (active) | 0.271 µM (active) | 0.377 µM (active) | 0.393 µM (active) | 0.649 µM (active) | 2.38 µM (inactive) | 0.687 µM (active) | 0.223 µM (active) | 0.485 µM (active) | 0.422 µM (active) | 0.19 µM (active) | 0.45 µM (active) | 0.543 µM | 0.203 µM (active) | 0.241 µM (active) | 0.701 µM (active) | 0.403 µM (active) | 0.258 µM (active) | 0.339 µM (active) | 0.34 µM (active)
3 | COc1ccc(/C=C2\NC(=S)N(/C=C3\C(=O)Oc4ccccc4C3=O)C2=O)cc1OC | 54 µM (inactive) | 22.4 µM (inactive) | 87.5 µM (inactive) | > 100 µM (inactive) | > 100 µM (inactive) | > 100 µM (inactive) | > 100 µM (inactive) | 32.4 µM (inactive) | > 100 µM (inactive) | 45 µM (inactive) | > 100 µM (inactive) | > 100 µM (inactive) | 93.5 µM | > 100 µM (inactive) | > 100 µM (inactive) | > 100 µM (inactive) | > 100 µM (inactive) | 77.6 µM (inactive) | > 100 µM (inactive) | > 100 µM (inactive)
4 | CC(C)c1cc(C(C)C)c(P2(=O)CC3C(Cl)(Cl)C3(C)C2)c(C(C)C)c1 (stereo not given) | 13.8 µM (inactive) | 4.2 µM (inactive) | 17.3 µM (inactive) | 11.4 µM (inactive) | 13.7 µM (inactive) | 10.3 µM (inactive) | 12.3 µM (inactive) | 11.6 µM (inactive) | 7.31 µM (inactive) | 2.24 µM (inactive) | 9.73 µM (inactive) | 7.91 µM (inactive) | 9.53 µM | 7.31 µM (inactive) | 11.7 µM (inactive) | 12.1 µM (inactive) | 3.24 µM (inactive) | 12.9 µM (inactive) | 14 µM (inactive) | 7.55 µM (inactive)
5 | O=c1ccc2ccc(OP(=O)(O)O)cc2o1 | > 100 µM (inactive) | > 100 µM (inactive) | > 100 µM (inactive) | > 100 µM (inactive) | > 100 µM (inactive) | > 100 µM (inactive) | > 100 µM (inactive) | > 100 µM (inactive) | > 100 µM (inactive) | > 100 µM (inactive) | > 100 µM (inactive) | > 100 µM (inactive) | > 100 µM | > 100 µM (inactive) | > 100 µM (inactive) | > 100 µM (inactive) | > 100 µM (inactive) | > 100 µM (inactive) | > 100 µM (inactive) | > 100 µM (inactive)
